Laboratory results as given in patent US20240124432A1, “HERBICIDAL COMPOUNDS” (SYNGENTA CROP PROTECTION AG, priority 2020, published 2024).

Tests used:
Format in all cases: in vivo
ECHCG [1] = experiment: Pre-emergence biological efficacy; details: Echinochloa crus-galli, 312 h, evaluated after 13 days, read-out: damage to plant (100=total damage to plant; 0=no damage to plant)
Method in brief: (§1)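 Pots sown and kept one day in glasshouse (24/19° C., 16 h light), then sprayed with compound formulated in IF50 (50 g/l) diluted in 0.2% Genapol XO80 to final dose. Grown at 24/18° C., 15 h light, 50% humidity; damage scored after 13 days, 0 none to 100 total.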

AMAPA [2] = experiment: Pre-emergence biological efficacy; details: Amaranthus palmeri, 312 h, evaluated after 13 days, read-out: damage to plant (100=total damage to plant; 0=no damage to plant)
Method in brief: as §1

LOLPE [3] = experiment: Pre-emergence biological efficacy; details: Lolium perenne, 312 h, evaluated after 13 days, read-out: damage to plant (100=total damage to plant; 0=no damage to plant)
Method in brief: as §1

IPOHE [4] = experiment: Pre-emergence biological efficacy; details: Ipomoea hederacea, 312 h, evaluated after 13 days, read-out: damage to plant (100=total damage to plant; 0=no damage to plant)
Method in brief: as §1

SETFA [5] = experiment: Pre-emergence biological efficacy; details: Setaria faberi, 312 h, evaluated after 13 days, read-out: damage to plant (100=total damage to plant; 0=no damage to plant)
Method in brief: as §1

EPHHL [6] = experiment: Pre-emergence biological efficacy; details: Euphorbia heterophylla, 312 h, evaluated after 13 days, read-out: damage to plant (100=total damage to plant; 0=no damage to plant)
Method in brief: as §1

DIGSA = experiment: Post-emergence biological efficacy; details: Digitaria sanguinalis, 312 h, evaluated after 13 days, read-out: damage to plant (100=total damage to plant; 0=no damage to plant)
Method in brief: (§2)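 Plants grown 14 days in glasshouse, then sprayed post-emergence with compound formulated in IF50 and diluted in 0.2% Genapol XO80 to the desired dose. Damage scored after 13 days on a 0–100 scale (100 = total damage).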

ECHCG [7] = experiment: Post-emergence biological efficacy; details: Echinochloa crus-galli, 312 h, evaluated after 13 days, read-out: damage to plant (100=total damage to plant; 0=no damage to plant)
Method in brief: as §2

AMAPA [8] = experiment: Post-emergence biological efficacy; details: Amaranthus palmeri, 312 h, evaluated after 13 days, read-out: damage to plant (100=total damage to plant; 0=no damage to plant)
Method in brief: as §2

ELEIN = experiment: Post-emergence biological efficacy; details: 312 h, evaluated after 13 days, read-out: damage to plant (100=total damage to plant; 0=no damage to plant)
Method in brief: as §2

LOLPE [9] = experiment: Post-emergence biological efficacy; details: Lolium perenne, 312 h, evaluated after 13 days, read-out: damage to plant (100=total damage to plant; 0=no damage to plant)
Method in brief: as §2

IPOHE [10] = experiment: Post-emergence biological efficacy; details: Ipomoea hederacea, 312 h, evaluated after 13 days, read-out: damage to plant (100=total damage to plant; 0=no damage to plant)
Method in brief: as §2

CHEAL = experiment: Post-emergence biological efficacy; details: Chenopodium album, 312 h, evaluated after 13 days, read-out: damage to plant (100=total damage to plant; 0=no damage to plant)
Method in brief: as §2

SETFA [11] = experiment: Post-emergence biological efficacy; details: Setaria faberi, 312 h, evaluated after 13 days, read-out: damage to plant (100=total damage to plant; 0=no damage to plant)
Method in brief: as §2

EPHHL [12] = experiment: Post-emergence biological efficacy; details: Euphorbia heterophylla, 312 h, evaluated after 13 days, read-out: damage to plant (100=total damage to plant; 0=no damage to plant)
Method in brief: as §2

SMILES	pest or weed control at 250 g/ha (ECHCG [1]) [%]	pest or weed control at 250 g/ha (AMAPA [2]) [%]	pest or weed control at 250 g/ha (LOLPE [3]) [%]	pest or weed control at 250 g/ha (IPOHE [4]) [%]	pest or weed control at 250 g/ha (SETFA [5]) [%]	pest or weed control at 250 g/ha (EPHHL [6]) [%]	pest or weed control at 250 g/ha (DIGSA) [%]	pest or weed control at 250 g/ha (ECHCG [7]) [%]	pest or weed control at 250 g/ha (AMAPA [8]) [%]	pest or weed control at 250 g/ha (ELEIN) [%]	pest or weed control at 250 g/ha (LOLPE [9]) [%]	pest or weed control at 250 g/ha (IPOHE [10]) [%]	pest or weed control at 250 g/ha (CHEAL) [%]	pest or weed control at 250 g/ha (SETFA [11]) [%]	pest or weed control at 250 g/ha (EPHHL [12]) [%]
CCOC(=O)C1(C)CC(c2cc(-c3cc(C(F)(F)F)ccn3)c(F)cc2Cl)=NO1 (stereo not drawn) [Compound 1-319, Ethyl 3-[2-chloro-4-fluoro-5-[4-(trifluoromethyl)-2-pyridyl]-phenyl]-5-methyl-4H-isoxazole-5-carboxylate]	30	40	10	0	0	20	80	60	80	40	10	100	90	70	80
CCOC(=O)C1(C)CC(c2cc(-c3ncc(F)cc3Cl)c(F)cc2Cl)=NO1 (stereo not drawn) [Compound 1-331, Ethyl 3-[2-chloro-5-(3-chloro-5-fluoro-2-pyridyl)-4-fluoro-phenyl]-5-methyl-4H-isoxazole-5-carboxylate]	90	100	80	60	100	100	100	100	100	100	100	100	100	100	100
CCOC(=O)C1(C)CC(c2cc(-c3ncc(Cl)cc3C(F)(F)F)c(F)cc2Cl)=NO1 (stereo not drawn) [Compound 1-343, Ethyl 3-[2-chloro-5-[5-chloro-3-(trifluoromethyl)-2-pyridyl]-4-fluoro-phenyl]-5-methyl-4H-isoxazole-5-carboxylate]	30	70	20	60	50	50	100	80	100	100	60	100	100	100	100
CCOC(=O)C1(C)CC(c2cc(-c3ncc([N+](=O)[O-])cc3Cl)c(F)cc2Cl)=NO1 (stereo not drawn) [Compound 1-355, Ethyl 3-[2-chloro-5-(3-chloro-5-nitro-2-pyridyl)-4-fluoro-phenyl]-5-methyl-4H-isoxazole-5-carboxylate]	10	0	20	20	10	20	50	50	100	50	50	70	60	40	80
CCOC(=O)C1(C)CC(c2cc(-c3cc(C)cc(F)n3)c(F)cc2Cl)=NO1 (stereo not drawn) [Compound 1-367, Ethyl 3-[2-chloro-4-fluoro-5-(6-fluoro-4-methyl-2-pyridyl)-phenyl]-5-methyl-4H-isoxazole-5-carboxylate]	0	0	0	0	0	0	50	40	0	20	0	40	20	40	30
CCOC(=O)C1(C)CC(c2cc(-c3cncc(OC)c3)c(F)cc2Cl)=NO1 (stereo not drawn) [Compound 1-379, Ethyl 3-[2-chloro-4-fluoro-5-(5-methoxy-3-pyridyl)-phenyl]-5-methyl-4H-isoxazole-5-carboxylate]	0	0	0	0	0	0	60	40	100	40	10	80	50	40	50
CCOC(=O)C1(C)CC(c2cc(-c3cnc(F)c(F)c3)c(F)cc2Cl)=NO1 (stereo not drawn) [Compound 1-391, Ethyl 3-[2-chloro-5-(5,6-difluoro-3-pyridyl)-4-fluoro-phenyl]-5-methyl-4H-isoxazole-5-carboxylate]	0	0	0	0	0	0	50	40	60	40	10	40	50	40	50
CCOC(=O)C1(C)CC(c2cc(-c3cnc(F)c(Cl)c3)c(F)cc2Cl)=NO1 (stereo not drawn) [Compound 1-403, Ethyl 3-[2-chloro-5-(5-chloro-6-fluoro-3-pyridyl)-4-fluoro-phenyl]-5-methyl-4H-isoxazole-5-carboxylate]	40	30	20	10	0	20	70	40	70	60	20	50	70	40	70
CCOC(=O)C1(C)CC(c2cc(-c3cnc(F)c(OC)c3)c(F)cc2Cl)=NO1 (stereo not drawn) [Compound 1-415, Ethyl 3-[2-chloro-4-fluoro-5-(6-fluoro-5-methoxy-3-pyridyl)-phenyl]-5-methyl-4H-isoxazole-5-carboxylate]	0	0	0	0	0	0	40	70	100	70	20	90	100	90	90
CCOC(=O)C1(C)CC(c2cc(-c3cnc(Cl)c(Cl)c3)c(F)cc2Cl)=NO1 (stereo not drawn) [Compound 1-427, Ethyl 3-[2-chloro-5-(5,6-dichloro-3-pyridyl)-4-fluoro-phenyl]-5-methyl-4H-isoxazole-5-carboxylate]	0	0	0	0	0	0	40	80	100	60	20	80	60	100	70
